These results are taken from PubChem BioAssay AID1996.

The structures appear in SMILES notation. In brackets after ≈: the same amount, converted by molar mass.

The conditions of the data set: buffer; pH 7.4; 200.0 µM.
For the compound `Cc1ccc(S(=O)(=O)Nc2nc(-c3ccccc3)cs2)cc1`, the solubility (kinetic) was over 49.6 µg/mL.
Regarding `N#Cc1c(-c2ccncc2)c2c([nH]c1=O)-c1ccccc1OC2`, the solubility (kinetic) turned out to be 14.9 µg/mL (≈ 49.5 µM).
For `O=C(NCCN1CCN(c2ccc([N+](=O)[O-])cc2)CC1)NCc1ccccc1` the value was over 57.5 µg/mL; for `COc1ccccc1OCc1ccc(C(=O)N2CCCCC2)o1`, over 47.3 µg/mL; for `Cc1cccc(NC(=O)Nc2c(C)[nH]c(=O)[nH]c2=O)c1C`, 5.2 µg/mL (≈ 18 µM).
Next, `COc1ccc(-n2ccnc2SCC(=O)NO)cc1`: over 41.9 µg/mL.
`Cc1ccc(C(=O)OCC(=O)NC2CC2)s1` registered a kinetic solubility of over 35.9 µg/mL.
Next, `Cn1cccc1C(=O)NCc1ccccn1`: over 32.3 µg/mL.
As for `O=C(CN1CCCC1)Nc1ccc(OCc2ccccc2)cc1`, the solubility (kinetic) is over 46.6 µg/mL.
For `O=c1[nH]c2ccc(S(=O)(=O)N3CCN(c4ccc(F)cc4)CC3)cc2o1` the value was 5.7 µg/mL (≈ 15.1 µM).
In turn, `COCC(C)n1c(C)cc(C(=O)COC(=O)c2cc(=O)[nH]c3ccccc23)c1C` (stereo not drawn) came in with a solubility (kinetic) of 11 µg/mL (≈ 27.7 µM).
The compound `N#CC1=C(N)Oc2c(ccc3cccnc23)C1c1ccccc1` (stereo not drawn) registered a kinetic solubility of 9.8 µg/mL (≈ 32.7 µM).
Next, `COc1ccc(CNC(=O)COC(=O)c2cc(S(=O)(=O)N3CCOCC3)ccc2O)cc1OC`: over 74.2 µg/mL; `C=CCNC(=S)Nc1sc2c(c1C(N)=O)CCCC2`: 18.2 µg/mL (≈ 61.6 µM); `O=C(CSc1ccccc1F)NCCN1C(=O)CSC1=O`: 48.1 µg/mL (≈ 146 µM).
Consider `O=C(Nc1ccc(C(=O)N2CCCc3ccccc32)cc1)c1cccs1`, for which the kinetic solubility was under 0.4 µg/mL.
For `CC(OC(=O)c1ccc(Cl)nc1)C(=O)NC(C)(C)C` (stereo not drawn) the value was over 42.7 µg/mL; for `Cc1ccc(C)c(S(=O)(=O)N2CCN(c3ncnc4sccc34)CC2)c1`, 5.6 µg/mL (≈ 14.4 µM); for `CC(C)c1ccc(C(O)Cc2nc3ccccc3n2C)cc1` (stereo not drawn), 1.8 µg/mL (≈ 6.11 µM).
Next, `COc1ccc(CCNC(=O)c2ccc(Br)cc2)cc1`: 1.3 µg/mL (≈ 3.89 µM); `COc1cccc(NC(=O)c2cnc(SC)nc2)c1`: 14.3 µg/mL (≈ 51.9 µM); `Cc1cccc(C)c1NC(=O)COC(=O)C1CC1`: 32.7 µg/mL (≈ 132 µM).
Next, `O=Cc1cc2cc3c(cc2nc1Cl)OCCO3`: 0.9 µg/mL (≈ 3.61 µM).
Compound `CC(=O)Nc1ccc(C(=S)NCCCO)cc1` registered a kinetic solubility of over 37.8 µg/mL.
Next, `CC(=O)Nc1ccc(-c2cc(C(=O)O)c3ccccc3n2)cc1`: 42.8 µg/mL (≈ 140 µM); `Cc1c(Cl)cccc1NC(=O)c1cc(-c2ccco2)on1`: 0.8 µg/mL (≈ 2.64 µM).
`Cc1csc(SCC(=O)N(C)C2CCS(=O)(=O)C2)n1` (stereo not drawn): the solubility (kinetic) was over 48.1 µg/mL.
The compound `O=C(COc1ccccc1[N+](=O)[O-])Nc1cccc(S(=O)(=O)N2CCCC2)c1` showed a kinetic solubility of 3.5 µg/mL (≈ 8.63 µM).
Next, `COc1cccc(C(=O)Nc2cccc3ccccc23)c1`: 1.5 µg/mL (≈ 5.41 µM).
`O=C(CNc1cc(S(=O)(=O)N2CCOCC2)ccc1N1CCOCC1)Nc1cccc(C(F)(F)F)c1` yielded a kinetic solubility of 2.5 µg/mL (≈ 4.73 µM).
Next, `CC(N=C1NC(C)(C)Cc2ccccc21)C(=O)O` (stereo not drawn): 33.2 µg/mL (≈ 135 µM); `O=[N+]([O-])c1cc([N+](=O)[O-])c2cc(-c3cccnc3)[nH]c2c1`: under 0.2 µg/mL.
For `O=C(NCCNC(=O)c1ccccc1F)c1ccco1.O=C(O)C(=O)O` the value was 51.5 µg/mL.
For `Cc1ccc(OCC(=O)NC2CCCCCC2)cc1C` the value was 3.4 µg/mL (≈ 12.3 µM); for `O=C(Cc1ccccc1)Nc1nc(-c2ccc(F)c(F)c2)cs1`, 0.4 µg/mL (≈ 1.21 µM).
For `Cc1ccc(-c2sc(-c3cccnc3)nc2CC(=O)O)cc1`, the solubility (kinetic) is over 46.6 µg/mL.
Compound `Cc1onc(-c2ccccc2)c1C(=O)NC(C)c1ccccc1` (stereo not drawn) came in with a solubility (kinetic) of 4.9 µg/mL (≈ 16 µM).
For `CC(=O)N1CC(=O)Nc2ccc(F)cc2C1c1ccccc1` (stereo not drawn) the value was over 44.7 µg/mL.
Next, `CCC(CC)NC(=O)Cn1c(C(C)NC(C)=O)nc2ccccc21` (stereo not drawn): 41.3 µg/mL (≈ 125 µM); `COc1ccc(OCC(O)CN2CCOCC2)cc1` (stereo not drawn): 40.1 µg/mL (≈ 150 µM).
Next, `CN(C)c1ccc(C(=O)OCC(=O)NC2CCCCCC2)cc1`: 2.8 µg/mL (≈ 8.79 µM); `Cc1ccc(-c2nc(NCC3CCCO3)sc2C)cc1` (stereo not drawn): 24.2 µg/mL (≈ 83.9 µM).
Turning to `O=C1CN(C(=O)COC(=O)c2ccc([N+](=O)[O-])s2)c2ccccc2N1`, the kinetic solubility was found to be 9.3 µg/mL (≈ 25.7 µM).
Next, `Cc1ccnc(SCC(=O)N2CCCc3ccccc32)n1`: over 44.9 µg/mL.
`Cc1occc1C(=O)NCc1nc(-c2ccc(Cl)cc2)no1` displayed a kinetic solubility of 37.8 µg/mL (≈ 119 µM).
Next, `COc1cccc2[nH]c3c(N4CCC5(CC4)OCCO5)ncnc3c12`: over 51.1 µg/mL; `COC(=O)c1c(C)nc(C)c(C(=O)OC)c1-c1cccs1`: over 45.8 µg/mL.
Regarding `O=C(O)c1ccc(S(=O)(=O)c2ccc([N+](=O)[O-])cc2[N+](=O)[O-])cc1`, the solubility (kinetic) was over 52.8 µg/mL.
Compound `CC(=O)c1ccc(OCCCC(=O)Nc2cccc(S(=O)(=O)N3CCCCCC3)c2)cc1` returned a kinetic solubility of 10.4 µg/mL (≈ 22.7 µM).
Next, `Cc1cccc(C)c1OCC(=O)Nc1c(C)nn(C)c1C`: over 43.1 µg/mL; `CC(=O)c1cccc(NC(=O)CCC(=O)Oc2ccc(C)cc2)c1`: over 48.8 µg/mL.
Next, `Cc1cc(Br)ccc1NC(=O)CSCc1c(C)noc1C`: 30.1 µg/mL (≈ 81.5 µM); `c1ccc(CNc2cncnc2)cc1`: 26.4 µg/mL (≈ 143 µM).
`COCCNC(=O)c1cc2cc(Br)cc(Br)c2oc1=O` showed a solubility (kinetic) of 1.6 µg/mL (≈ 3.95 µM).
Next, `O=C(O)CNC(=O)C12CC3CC(CC(Cl)(C3)C1)C2`: over 40.8 µg/mL.
For `Clc1ccc(/C=C/c2ncc[nH]2)c(Cl)c1` the value was 7.7 µg/mL (≈ 32.2 µM); for `COc1ccc(Cl)cc1C(=O)NCCCN1CCOCC1`, over 46.9 µg/mL; for `Cc1cc(C)n2c(=O)c3ccc(Cl)cc3nc2c1C#N`, 1.3 µg/mL (≈ 4.58 µM).
`CCc1ccc2[nH]c(=O)c(Cc3ccccc3)c(O)c2c1`: the kinetic solubility is over 41.9 µg/mL.
For `COC(=O)/C=C1\N/C(=N/c2nc(C)c3cc(OC)ccc3n2)NC1=O`, the kinetic solubility was determined as 1.4 µg/mL (≈ 4.1 µM).
Next, `NC(=O)COc1ccc2cc(-c3ccccc3)c(=O)oc2c1`: 3.8 µg/mL (≈ 12.9 µM).
For `O=c1[nH]c(/C=C/c2ccc3c(c2)OCO3)c([N+](=O)[O-])c(=O)[nH]1` the value was 19.4 µg/mL (≈ 64 µM); for `Cc1ccc(S(=O)(=O)N2CCC(=O)CC2)cc1`, over 38 µg/mL.
For `Cl.O=S(=O)(CCC1CCCCN1)c1ccccc1` (stereo not drawn) the value was over 43.5 µg/mL; for `COc1ccc(-c2cc(=O)oc(-c3cccc(C)c3)n2)cc1`, 1.1 µg/mL (≈ 3.75 µM).
Regarding `Cc1ccc(N/C=C/C(=O)c2ccco2)c(O)c1`, the solubility (kinetic) stood at 1.4 µg/mL (≈ 5.76 µM).
For `CCOc1ccc(CCN2CN(CC)CNC2=S)cc1OCC` the value was over 50.6 µg/mL; for `CN(CC(=O)Nc1ccccc1)CC(=O)Nc1ccccc1Cl`, over 49.8 µg/mL; for `CCOC(=O)N1CCN(CCCc2ccccc2)CC1`, 30.9 µg/mL (≈ 112 µM).
Next, `COc1cc(NC(=S)Nc2cccnc2)cc(OC)c1`: under 0.2 µg/mL.
`Cc1ccc(C)n1-c1cccc(C(=O)Nc2ccccc2)c1`: the kinetic solubility was 13.9 µg/mL (≈ 47.9 µM).
For `O=C(c1cn(Cc2ccccc2F)c2ncccc12)C(F)(F)F` the value was 2.8 µg/mL (≈ 8.69 µM); for `Cc1ccc(C(=O)Nc2ccc(Nc3ccccc3)cc2)cc1C`, 2.3 µg/mL (≈ 7.27 µM); for `Cc1ccc(S(=O)(=O)NC(C)C(=O)NC(C)c2cccs2)cc1` (stereo not drawn), 51.6 µg/mL (≈ 146 µM).
For `CC(=O)C1=C(C)OC(N)=C(C#N)C1c1cccc2ccccc12` (stereo not drawn) the value was 37.6 µg/mL (≈ 124 µM); for `COc1ccc(NC(=O)C2=Cc3cccc(OC)c3OC2)cc1`, 17.7 µg/mL (≈ 56.9 µM); for `CN(C)C(=S)Nc1ccc2c(c1)OCCO2`, over 35.7 µg/mL.
Next, `O=C(OCc1nc2ccsc2c(=O)[nH]1)c1ccccc1`: over 42.9 µg/mL.
`COC(=O)c1sc2nc3c(cc2c1N)CCCC3` returned a kinetic solubility of 2 µg/mL (≈ 7.62 µM).
For `CSc1nc2nc3c(cc2c(=O)n1-c1ccccc1C)CCCC3` the value was 37.9 µg/mL (≈ 112 µM); for `O=C(Nc1c(Cl)ccc2nsnc12)c1ccc([N+](=O)[O-])o1`, over 48.7 µg/mL.
For `O=C(CCN1C(=O)c2cccc([N+](=O)[O-])c2C1=O)NC1CCCCCC1` the value was over 53.9 µg/mL; for `Cc1ccc(SCC(=O)N2CCC(C(N)=O)CC2)cc1`, over 43.9 µg/mL.
On to `CC(C(=O)NC1CCCCC1)N1C(=O)C2C3C=CC(C3)C2C1=O` (stereo not drawn), for which the solubility (kinetic) was over 47.5 µg/mL.
Take `CCOc1ccc(N2C(=O)CNC2=S)cc1`: the kinetic solubility is over 35.4 µg/mL.
For `O=C1CC2(CC(c3ccc(Cl)cc3)=NO2)C(=O)N1c1ccccc1` (stereo not drawn) the value was 48.9 µg/mL (≈ 144 µM); for `O=[N+]([O-])c1cccc(-c2noc(-c3ccco3)n2)c1`, 1.7 µg/mL (≈ 6.61 µM).
Next, `COc1ccc(-c2nc3cc([N+](=O)[O-])ccc3o2)cc1OC`: under 0.3 µg/mL; `Cc1cc(Nc2ccc(C(=O)N3CCCCC3)cc2)c2cccc(C)c2n1`: 4.8 µg/mL (≈ 13.4 µM).
For `Cn1c(N)c(C(=O)COC(=O)COc2ccc(Cl)cc2Cl)c(=O)n(C)c1=O` the value was 4.7 µg/mL (≈ 11.3 µM); for `O=C(NC(=S)Nc1cccnc1)c1ccccc1`, 36.1 µg/mL (≈ 140 µM); for `CCn1cc(C(=O)NCc2ccco2)c(=O)c2ccc(C)nc21`, 2.4 µg/mL (≈ 7.71 µM).
`O=C(/C=C/c1ccc(F)cc1)N1CCN(Cc2ccccc2)CC1` returned a solubility (kinetic) of 44.5 µg/mL (≈ 137 µM).
Next, `Cc1cccc(NS(=O)(=O)c2ccc(C(C)(C)C)cc2)n1`: 42.7 µg/mL (≈ 140 µM); `O=C(COc1ccccc1Cl)NCCCNC(=O)c1cccnc1`: over 52.2 µg/mL.
For `Cc1cc(N)ccc1NC(=O)CN1CCOCC1` the value was over 37.4 µg/mL.
For `Cl.Clc1cccc(Cl)c1CSc1nnc([C@@H]2CCCN2)o1` the value was over 55 µg/mL; for `CN(CC(=O)Nc1ccccc1Cl)C(=O)c1ccc(Cl)c(S(=O)(=O)N2CCCCCC2)c1`, 21.6 µg/mL (≈ 43.3 µM).
`CCNc1nc2cccnc2s1` had a kinetic solubility of 24.7 µg/mL (≈ 138 µM).
The compound `Cc1cc(OCC(=O)NC2CCN(C)CC2)ccc1[N+](=O)[O-]` had a kinetic solubility of over 46.1 µg/mL.
Next, `O=C1CCC(C(=O)Nc2ccc(Cl)cc2)N1` (stereo not drawn): over 35.8 µg/mL; `CC(C)CCNS(=O)(=O)c1cc2c3c(c1)CCN3C(=O)CC2`: 46 µg/mL (≈ 143 µM).
For `CCOC(=O)c1cc2c(ccn2C)n1CC(=O)N(CC)CC` the value was over 45.8 µg/mL.
